The values below are quoted from earlier work in US20160289773A1 (priority 2013, published 2016).

Where “and” joins values, the source holds several entries; their conditions need not be identical. Identical values can stand only once.

In data set [1] the test system is Haemonchus contortus. Conditions: in vivo.
Data set [2] has as its system Haemonchus contortus. The note with it: Zaire isolate.

For `c1ccc([C@H]2CN3CCSC3=N2)cc1` [Levamisole, levamisole], the Levamisole efficacy in data set [1] was 100% and > 99%. In data set [2], the “levamisole susceptibility status of isolate” value is listed as “susceptible”.
